Measurements as given in PMC10056443, “Derivatives of Amaryllidaceae Alkaloid Ambelline as Selective Inhibitors of Hepatic Stage of Plasmodium berghei Infection In Vitro” (Pharmaceutics, 2023).
Read-outs that look alike come from different tables or passages of the source.

Key:
[1] = test system: P. falciparum NF54 ring-stage synchronized cultures; test: In vitro activity against P. falciparum blood stages (flow cytometry, SYBR green I); type: cell-based, Plasmodium falciparum; details: Control = 7.76333, 48 h
Experimental: Activity against the blood stage of P. falciparum infection was assessed by flow cytometry analysis following the incubation of either test compounds or the drug vehicle (DMSO) with ring-stage synchronized parasite cultures, as previously described. Stock solutions of the test compounds, as well as of the positive control compound chloroquine, were prepared in DMSO and diluted to test concentrations in complete malaria culture medium (CMCM), i.e., 1640 RPMI medium supplemented with 25 mM HEPES, 2.4 mM L-glutamine, 50 µg/mL gentamicin, 0.5% w/v Albumax, 11 mM glucose, 1.47 mM hypoxanthine, and 37.3 mM NaHCO3. Samples at tested concentration were then incubated with ring-stage synchronized cultures of P. falciparum NF54 at 2.5% hematocrit and at approximately 1% parasitemia in 96-well plates at 37 °C in a 5% CO2 and 5% O2 atmosphere. Forty-eight hours post incubation, parasite load was assessed by flow cytometry, upon staining with the DNA-specific dye SYBR green I. Approximately 100,000 events were analyzed in each flow cytometry measurement.

[2] = Cytotoxicity assessment in vitro (MTT assay); type: cell-based; details: human
Experimental: (§1) HepG2 cells of human hepatocellular carcinoma (ATCC HB-8065; passage 20–25), purchased from Health Protection Agency Culture Collections (ECACC, Salisbury, UK), were cultured in Minimum Essential Medium Eagle supplemented with 10% v/v fetal bovine serum and 1% v/v L-glutamine solution (Sigma-Aldrich, St. Louis, MO, USA) at 37 °C in a humidified atmosphere containing 5% CO2. For passaging, the cells were treated with trypsin/EDTA (Sigma-Aldrich, St. Louis, MO, USA) at 37 °C and then harvested. For the cytotoxicity evaluation, the cells treated with the test substances were used, while untreated HepG2 cells served as a control group. The cells were seeded in a 96-well plate at a density of 1 × 10^4 cells per well and incubated for 24 h. All tested compounds were dissolved in DMSO to prepare 10 mM stock solutions and diluted to the desired concentration just before the cell treatment. Cytotoxicity of all studied derivatives was screened at 10 μM concentration, and all samples were measured in triplicates. Positive and negative controls were also included. Plates were incubated for 24 h in a humidified atmosphere containing 5% CO2 at 37 °C. After the incubation, a solution of thiazolyl blue tetrazolium bromide (Sigma-Aldrich, St. Louis, MO, USA) in RPMI 1640 medium without phenol red (BioTech, Prague, Czech Republic) was added and incubated for 3 h in a humidified atmosphere containing 5% CO2 at 37 °C. Afterwards, formazan crystals were dissolved in DMSO, and the absorbance of samples was recorded at 570 nm (Synergy Neo2 Multi-Mode Reader NEO2SMALPHAB; BioTek, Winooski, VT, USA).

HepG2 cells = test: Cytotoxicity assessment in vitro (MTT assay); type: cell-based; details: human, 24 h, 10 µM
Experimental: as §1

Huh-7 cell line = test: Huh-7 cell confluency by alamarBlue assay during hepatic-stage test; type: cell-based; details: human, 46 h, pH 7
Method in brief: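 Huh-7 human hepatoma cells pre-treated with compound in infection medium 1 h before luciferase-expressing P. berghei sporozoites were added (1:1, 1 × 10^4 per well), then incubated 46 h at 37 °C, 5% CO2. Confluency assessed indirectly by alamarBlue; IC50 from nonlinear-regression fit of normalized dose-response curves.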

[3] = test system: hepatic stage of P. berghei; test: In vitro activity against P. berghei hepatic stages (luciferase-expressing sporozoites in Huh-7 cells, bioluminescence); type: cell-based, Plasmodium berghei; details: for activity at 1 µM / activity at 10 µM / IC50: Plasmodium berghei; for activity at 1 µM / activity at 10 µM: Huh-7, 48 h, DMSO = 100, read-out: INFECTION Ø screening
Method in brief: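 Huh-7 hepatoma cells pretreated with compounds 1 h, then infected with luciferase-expressing P. berghei sporozoites (1 × 10^4/well, 1:1 ratio) and incubated at 37 °C.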

[4] = Huh-7, mean, unit (Table 1: µM), read-out: Antiplasmodial activity - Ø IC50
[5] = Huh-7, replicate 1, unit (Table 1: µM), read-out: Antiplasmodial activity - IC50 determination, 1. measurement
[6] = Huh-7, replicate 2, unit (Table 1: µM), read-out: Antiplasmodial activity - IC50 determination, 2. measurement
[7] = Huh-7, replicate 3, unit (Table 1: µM), read-out: Antiplasmodial activity - IC50 determination, 3. measurement
[8] = hepatic stage, Huh-7 cells, parasite load 48 h post-infection, read-out: IC50 P. berghei

SMILES	Ø screening, blood stage parasite load ([1]; at 10 nM)	Ø screening, blood stage parasite load ([1]; at 500 nM)	Ø screening, blood stage parasite load ([1]; at 100 nm)	viability at 24 h, 10 µM [2]	1. screening of cytotoxic potential, HepG2 cell line (HepG2 cells)	2. screening of cytotoxic potential, HepG2 cell line (HepG2 cells)	3. screening of cytotoxic potential, HepG2 cell line (HepG2 cells)	Ø screening, HepG2 (sheet Graphs) (HepG2 cells)	CELL CONFLUENCY Ø screening (Huh-7 cell line; 1 µM)	CELL CONFLUENCY Ø screening (Huh-7 cell line; 10 µM)	activity at 1 µM [3]	activity at 10 µM [3]	IC50 [3, 4]	IC50 [3, 5]	IC50 [3, 6]	IC50 [3, 7]	IC50 [3, 8]	activity against P. berghei hepatic stages ([3]; screening at 10 and 1 µM / IC50 determination)
COc1c2c(cc3c1OCO3)[C@]13C=C[C@H](OC)C[C@H]1N(C2)C[C@H]3OC(=O)c1ccc(C)c([N+](=O)[O-])c1 [28r, 11-O-(4-Methyl-3-nitrobenzoyl)ambelline]	8.177	7.467	7.743	65 ± 8%	69.43	55.1	69.8	64.78	94.75	52.08	22.2%	1.01%	0.41 µM	0.358 µM	0.408 µM	0.465 µM	0.41 ± 0.054 µM	–
COc1c2c(cc3c1OCO3)[C@]13C=C[C@H](OC)C[C@H]1N(C2)C[C@H]3OC(=O)c1cccc([N+](=O)[O-])c1 [28p, 11-O-(3-Nitrobenzoyl)ambelline]	4.593	4.517	4.83	75 ± 6%	70.36	72.83	81.93	75.04	87.05	79.58	48.1%	1.45%	1.53 µM	1.46 µM	1.36 µM	1.78 µM	1.53 ± 0.22 µM	–
COc1c2c(cc3c1OCO3)[C@]13C=C[C@H](OC)C[C@H]1[N@](C2)C[C@H]3OC(C)=O [28a, 11-O-Acetylambelline]	7.817	11.5	10.27	107 ± 3%	104.06	105.26	110.57	106.6	94.22	93.33	79.5%	64.4%	–	–	–	–	> 10 µM	–
CCC(=O)O[C@@H]1CN2Cc3c(cc4c(c3OC)OCO4)[C@@]13C=C[C@H](OC)C[C@@H]23 [28b, 11-O-Propionylambelline]	8.397	7.243	7.813	58 ± 4%	62.58	57.25	55.25	58.36	98.41	102.4	77.6%	64.5%	–	–	–	–	> 10 µM	–
COc1c2c(cc3c1OCO3)[C@]13C=C[C@H](OC)C[C@H]1N(C2)C[C@H]3OC(=O)c1ccc(Cl)c([N+](=O)[O-])c1 [28t, 11-O-(4-Chloro-3-nitrobenzoyl)ambelline]	7.33	7.613	7.113	15 ± 2%	13.64	17.76	14.19	15.2	96.94	92.83	114%	92.6%	–	–	–	–	–	not dose-dependent
